Tests used:
Type in all cases: in vivo
[1] = test system: Bemisia tabaci (Cotton White Fly); experiment: Bemisia tabaci (cotton white fly), sprayed cotton leaf discs; conditions: foliar, 144 h, application rate of 200 ppm, adult white flies on cotton leaf discs, 6 days after incubation
Method: Example B1: Bemisia tabaci (Cotton White Fly)
Cotton leaf discs were placed on agar in 24-well microtiter plates and sprayed with aqueous test solutions prepared from 10′000 ppm DMSO stock solutions. After drying the leaf discs were infested with adult white flies. The samples were checked for mortality 6 days after incubation.

[2] = test system: Euschistus heros (Neotropical Brown Stink Bug); experiment: Euschistus heros (neotropical brown stink bug), sprayed soybean leaf; conditions: 120 h, application rate of 200 ppm, N-2 nymphs on soybean leaf, 5 days after infestation
Method: Example B3: Euschistus heros (Neotropical Brown Stink Bug)
Soybean leaf on agar in 24-well microtiter plates were sprayed with aqueous test solutions prepared from 10′000 ppm DMSO stock solutions. After drying the leaf were infested with N-2 nymphs. The samples were assessed for mortality in comparison to untreated samples 5 days after infestation.

[3] = test system: Myzus persicae (Green Peach Aphid); experiment: Myzus persicae (green peach aphid), sprayed sunflower leaf discs; conditions: foliar, 144 h, application rate of 200 ppm, mixed ages on sunflower leaf discs, 6 days after infestation
Method: Example B4: Myzus persicae (Green Peach Aphid)
(§1) Sunflower leaf discs were placed on agar in a 24-well microtiter plate and sprayed with aqueous test solutions prepared from 10′000 ppm DMSO stock solutions. After drying, the leaf discs were infested with an aphid population of mixed ages. The samples were assessed for mortality 6 days after infestation.

[4] = test system: Myzus persicae (Green Peach Aphid); experiment: Myzus persicae (green peach aphid), roots of pea seedlings in test solution; conditions: 144 h, test rate of 24 ppm, roots of infested pea seedlings in test solution, 6 days
Method: Example B5: Myzus persicae (Green Peach Aphid)
Roots of pea seedlings infested with an aphid population of mixed ages were placed directly in the aqueous test solutions prepared from 10′000 DMSO stock solutions. The samples were assessed for mortality 6 days after placing seedlings in test solutions.

[5] = test system: Plutella xylostella (Diamond Back Moth); experiment: Plutella xylostella (diamond back moth), treated artificial diet; conditions: 120 h, application rate of 200 ppm, L2 larvae on artificial diet, 5 days after infestation, read-out: effect in at least one of the two categories (mortality or growth inhibition)
Outline: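 Artificial diet treated with aqueous dilutions of DMSO stocks (10′000 ppm stock), dried, then infested with 10-15 L2 larvae per well. Mortality and growth inhibition assessed versus untreated controls 5 days after infestation.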

[6] = test system: Spodoptera littoralis (Egyqptian Cotton Leaf Worm); experiment: Spodoptera littoralis (Egyptian cotton leaf worm), sprayed cotton leaf discs; conditions: foliar, 72 h, application rate of 200 ppm, L1 larvae on cotton leaf discs, 3 days after infestation
Outline: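 Cotton leaf discs on agar were sprayed with aqueous dilutions made from 10′000 ppm DMSO stocks, then infested after drying with five L1 larvae. Mortality, anti-feedant effect and growth inhibition were scored against untreated discs 3 days after infestation. Control means at least one of these exceeds the untreated sample.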

[7] = test system: Thrips tabaci (Onion Thrips); experiment: Thrips tabaci (onion thrips), sprayed sunflower leaf discs; conditions: foliar, 144 h, application rate of 200 ppm, mixed ages on sunflower leaf discs, 6 days after infestation
Method: Example B10: Thrips tabaci (Onion Thrips)
as §1, with “in” for “in a”, “plates” for “plate”, “drying” for “drying,”, “a thrips” for “an aphid”

[8] = test system: Frankliniella occidentalis (Western Flower Thrips); experiment: Frankliniella occidentalis (western flower thrips), sprayed sunflower leaf discs; conditions: foliar, 168 h, application rate of 200 ppm, mixed ages on sunflower leaf discs, 7 days after infestation
Method: Example B11: Frankliniella occidentalis (Western Flower Thrips)
as §1, with “in” for “in a”, “plates” for “plate”, “[…]” for “10′000 ppm”, “drying” for “drying,”, “a Frankliniella” for “an aphid”, “7” for “6”

[9] = test system: Diabrotica balteata (Corn Root Worm); experiment: Diabrotica balteata (corn root worm), sprayed maize sprouts; conditions: 96 h, application rate of 200 ppm, L2 larvae on maize sprouts, 4 days after infestation
Method: Example B2: Diabrotica balteata (Corn Root Worm)
Maize sprouts, placed on an agar layer in 24-well microtiter plates were treated with aqueous test solutions prepared from 10′000 ppm DMSO stock solutions by spraying. After drying, the plates were infested with L2 larvae (6 to 10 per well). The samples were assessed for mortality and growth inhibition in comparison to untreated samples 4 days after infestation.

[10] = test system: Spodoptera littoralis (Egyqptian Cotton Leaf Worm); experiment: Spodoptera littoralis (Egyptian cotton leaf worm), compound in agar taken up by lettuce roots; conditions: 144 h, test rate of 12.5 ppm, uptake by lettuce roots from agar, 6 days after infestation, read-out: effect in at least one of the three categories (mortality, anti-feedancy, or growth inhibition)
Outline: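 Compound mixed into agar from a 10′000 ppm DMSO stock and taken up over 7 days by lettuce roots; cut leaves then infested with Spodoptera eggs. Mortality, anti-feedant effect and growth inhibition scored against untreated samples 6 days after infestation.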

[11] = test system: Aedes aegypti (Yellow Fever Mosquito); experiment: Activity against Aedes aegypti (yellow fever mosquito), dried deposits in tissue culture plates; conditions: application rate of 200 ppm in ethanol, adult females, after 48 h
Method: Example B12: Activity Against Aedes aegypti (Yellow Fever Mosquito)
Test solutions, at an application rate of 200 ppm in ethanol, were applied to 12-well tissue culture plates. Once the deposits were dry, five, two to five days old adult female Aedes aegypti were added to each well, and sustained with a 10% sucrose solution in a cotton wool plug. Assessment of knockdown was made one hour after introduction, and mortality was assessed at 24 and 48 hours after introduction.
The following compounds gave at least 80% control of Aedes aegypti after 48 h: […]

[12] = test system: Tetranychus urticae (Two-Spotted Spider Mite); experiment: Tetranychus urticae (two-spotted spider mite), sprayed bean leaf discs; conditions: foliar, 192 h, application rate of 200 ppm, mixed population (mobile stages) on bean leaf discs, 8 days after infestation
Method: Example B9: Tetranychus urticae (Two-Spotted Spider Mite)
Bean leaf discs on agar in 24-well microtiter plates were sprayed with aqueous test solutions prepared from 10′000 ppm DMSO stock solutions. After drying the leaf discs were infested with a mite population of mixed ages. The samples were assessed for mortality on mixed population (mobile stages) 8 days after infestation.

CCS(=O)(=O)c1cc(-c2cncnc2)cnc1-c1nc2cc(C(F)(F)F)ncc2n1C [Compound P8]
≥ 80%: mortality at 200 ppm [1] | mortality at 200 ppm [2] | mortality at 200 ppm [3] | mortality at 24 ppm [4] | percent effect (mortality or growth inhibition) at 200 ppm [5] | percent control (mortality, anti-feedant effect or growth inhibition) at 200 ppm [6] | mortality at 200 ppm [7] | mortality at 200 ppm [8]

CCS(=O)(=O)c1cc(-c2ncc(Cl)cn2)cnc1-c1nc2cc(C(F)(F)F)ncc2n1C [Compound P11]
≥ 80%: mortality at 200 ppm [1] | mortality at 200 ppm [9] | mortality at 200 ppm [2] | mortality at 200 ppm [3] | percent effect (mortality or growth inhibition) at 200 ppm [5] | percent control (mortality, anti-feedant effect or growth inhibition) at 200 ppm [6] | percent control (mortality, anti-feedancy or growth inhibition) at 12.5 ppm [10] | mortality at 200 ppm [7] | mortality at 200 ppm [8] | pest or weed control at 200 ppm [11]

CCS(=O)(=O)c1cc(-n2cc(Cl)cn2)cnc1-c1nc2cc(C(F)(F)F)ncc2n1C [Compound P16, 2-[5-(4-chloropyrazol-1-yl)-3-ethylsulfonyl-2-pyridyl]-3-methyl-6-(trifluoromethyl)imidazo[4,5-c]pyridine]
≥ 80%: mortality at 200 ppm [1] | mortality at 200 ppm [9] | mortality at 200 ppm [2] | mortality at 200 ppm [3] | percent effect (mortality or growth inhibition) at 200 ppm [5] | percent control (mortality, anti-feedant effect or growth inhibition) at 200 ppm [6] | percent control (mortality, anti-feedancy or growth inhibition) at 12.5 ppm [10] | mortality at 200 ppm [7] | mortality at 200 ppm [8] | pest or weed control at 200 ppm [11]

CCS(=O)(=O)c1cc(-n2cc(Br)cn2)cnc1-c1nc2cc(C(F)(F)F)ncc2n1C [Compound P17]
≥ 80%: mortality at 200 ppm [1] | mortality at 200 ppm [9] | percent effect (mortality or growth inhibition) at 200 ppm [5] | percent control (mortality, anti-feedant effect or growth inhibition) at 200 ppm [6] | mortality at 200 ppm [7] | mortality at 200 ppm [8] | pest or weed control at 200 ppm [11]

CCS(=O)(=O)c1cc(-c2ccc(Cl)cn2)cnc1-c1nc2cc(C(F)(F)F)ncc2n1C [Compound P20]
≥ 80%: mortality at 200 ppm [1] | mortality at 200 ppm [9] | mortality at 200 ppm [2] | mortality at 200 ppm [3] | percent effect (mortality or growth inhibition) at 200 ppm [5] | percent control (mortality, anti-feedant effect or growth inhibition) at 200 ppm [6] | percent control (mortality, anti-feedancy or growth inhibition) at 12.5 ppm [10] | mortality at 200 ppm [7] | mortality at 200 ppm [8] | pest or weed control at 200 ppm [11]

CCS(=O)(=O)c1cc(-c2ncc(F)cc2F)cnc1-c1nc2cc(C(F)(F)F)ncc2n1C [Compound P35]
≥ 80%: mortality at 200 ppm [1] | mortality at 200 ppm [9] | mortality at 200 ppm [3] | mortality at 24 ppm [4] | percent effect (mortality or growth inhibition) at 200 ppm [5] | percent control (mortality, anti-feedant effect or growth inhibition) at 200 ppm [6] | percent control (mortality, anti-feedancy or growth inhibition) at 12.5 ppm [10] | mortality at 200 ppm [12] | mortality at 200 ppm [8]

CCS(=O)(=O)c1cc(-c2cccc(C#N)n2)cnc1-c1nc2cc(C(F)(F)F)ncc2n1C [Compound P64]
≥ 80%: mortality at 200 ppm [1] | mortality at 200 ppm [9] | mortality at 200 ppm [2] | mortality at 200 ppm [3] | percent effect (mortality or growth inhibition) at 200 ppm [5] | percent control (mortality, anti-feedant effect or growth inhibition) at 200 ppm [6] | percent control (mortality, anti-feedancy or growth inhibition) at 12.5 ppm [10] | mortality at 200 ppm [12]

CCS(=O)(=O)c1cc(-c2ccoc2)cnc1-c1nc2cc(C(F)(F)F)ncc2n1C [Compound P71]
≥ 80%: mortality at 200 ppm [9] | mortality at 200 ppm [2] | mortality at 200 ppm [3] | percent effect (mortality or growth inhibition) at 200 ppm [5] | percent control (mortality, anti-feedancy or growth inhibition) at 12.5 ppm [10] | mortality at 200 ppm [12]

CCS(=O)(=O)c1cc(-n2cc(C(F)(F)F)cn2)cnc1-c1nc2cc(C(F)(F)F)ncc2n1C [Compound P85]
≥ 80%: mortality at 200 ppm [1] | mortality at 200 ppm [9] | mortality at 200 ppm [2] | mortality at 200 ppm [3] | percent effect (mortality or growth inhibition) at 200 ppm [5] | percent control (mortality, anti-feedant effect or growth inhibition) at 200 ppm [6] | percent control (mortality, anti-feedancy or growth inhibition) at 12.5 ppm [10] | mortality at 200 ppm [7] | mortality at 200 ppm [8] | pest or weed control at 200 ppm [11]

CCS(=O)(=O)c1cc(-n2cc(C#N)cn2)cnc1-c1nc2cc(C(F)(F)F)ncc2n1C [Compound P94]
≥ 80%: mortality at 200 ppm [1] | mortality at 200 ppm [9] | mortality at 200 ppm [2] | mortality at 200 ppm [3] | mortality at 24 ppm [4] | percent effect (mortality or growth inhibition) at 200 ppm [5] | percent control (mortality, anti-feedant effect or growth inhibition) at 200 ppm [6] | mortality at 200 ppm [7] | mortality at 200 ppm [8] | pest or weed control at 200 ppm [11]

CCS(=O)(=O)c1cc(-c2nccc(C(F)(F)F)n2)cnc1-c1nc2cc(C(F)(F)F)ncc2n1C [Compound P100]
≥ 80%: mortality at 200 ppm [1] | mortality at 200 ppm [9] | mortality at 200 ppm [2] | mortality at 200 ppm [3] | percent effect (mortality or growth inhibition) at 200 ppm [5] | percent control (mortality, anti-feedant effect or growth inhibition) at 200 ppm [6] | percent control (mortality, anti-feedancy or growth inhibition) at 12.5 ppm [10] | mortality at 200 ppm [7] | mortality at 200 ppm [8] | pest or weed control at 200 ppm [11]

CCS(=O)(=O)c1cc(-n2cnc(Cl)n2)cnc1-c1nc2cc(C(F)(F)F)ncc2n1C [Compound P106]
≥ 80%: mortality at 200 ppm [1] | mortality at 200 ppm [9] | mortality at 200 ppm [2] | mortality at 200 ppm [3] | mortality at 24 ppm [4] | percent effect (mortality or growth inhibition) at 200 ppm [5] | percent control (mortality, anti-feedant effect or growth inhibition) at 200 ppm [6] | mortality at 200 ppm [7] | mortality at 200 ppm [8]

CCS(=O)(=O)c1cc(-c2ncc(C#N)cn2)cnc1-c1nc2cc(C(F)(F)F)ncc2n1C [Compound P111]
≥ 80%: mortality at 200 ppm [1] | mortality at 200 ppm [9] | mortality at 200 ppm [2] | mortality at 200 ppm [3] | mortality at 24 ppm [4] | percent effect (mortality or growth inhibition) at 200 ppm [5] | percent control (mortality, anti-feedant effect or growth inhibition) at 200 ppm [6] | mortality at 200 ppm [7] | mortality at 200 ppm [8] | pest or weed control at 200 ppm [11]

Reference: US9809587B2, “Pesticidally active heterocyclic derivatives with sulphur containing substituents” (Syngenta Participations AG, priority 2014, dated 2017)
